Data published in US20060276406A1, “Methods of treating hepatitis C virus” (Schering Corporation, priority 2005, published 2006).

Key:
[1] = Treatment study: plasma Cmin after oral dosing for 14 days in HCV genotype-1 patients; assay type: in vivo, human; conditions: for Plasma Mean Cmin at 0 hour (trough) predose: 14 days, preliminary mean
Method: FIG. 2 is a box plot showing trough plasma levels of a compound of Formula Ia measured on day 14 at various times when a compound of Formula Ia is administered twice per day (bid, left box) and when a compound of Formula Ia is administered three times per day (tid, right box). It has been determined that metabolism of compounds of the present invention is also affected by the patient's circadian rhythm. As shown in FIG. 2 (right hand box), plasma levels of the drug are highest in the morning, when measured 8 hours after the previous dose and before the morning dose is administered.

[2] = Solubility in water / aqueous systems; assay type: physicochemical

CC(C)(C)NC(=O)N[C@H](C(=O)N1CC2C([C@H]1C(=O)NC(CC1CCC1)C(=O)C(N)=O)C2(C)C)C(C)(C)C (stereo partly drawn) [Formula Ia, (1R,5S)-N-[3-Amino-1-(Cyclobutylmethyl)-2,3-Dioxopropyl]-3-[2(S)-[[[(1,1-Dimethylethyl)Amino]Carbonyl]Amino]-3,3-Dimethyl-1-Oxobutyl]-6,6-Dimethyl-3-Azabicyclo[3.1.0]Hexan-2(S)-Carboxamide]
Plasma Mean Cmin at 0 hour (trough) predose ([1]; 100 mg BID oral, n = 12, HCV genotype-1 patients): Cmin = 12.7 ng/ml | Plasma Mean Cmin at 0 hour (trough) predose ([1]; 200 mg BID oral, n = 12, HCV genotype-1 patients): Cmin = 46.3 ng/ml | Plasma Mean Cmin at 0 hour (trough) predose ([1]; 400 mg BID oral, n = 11, HCV genotype-1 patients): Cmin = 48.8 ng/ml | Plasma Mean Cmin at 0 hour (trough) predose ([1]; 400 mg TID oral, n = 10, HCV genotype-1 patients): Cmin = 183 ng/ml | average Cmin plasma concentration maintained ([1]; all dosing regimens of Table 1): ≥ 10 ng/mL | solubility [2]: ~600 µg/mL
